Experimental data from PubChem BioAssay AID1996.
≈ marks a conversion by molar mass, not a printed value.

details: buffer; pH 7.4; 200.0 µM

Structure (SMILES) | solubility kinetic
COc1ccc(CCNC(=O)CSc2ccccn2)cc1 | > 45.4 µg/mL
CCn1c(=O)n(CC)c2cc(NC(=O)c3ccccc3Cl)ccc21 | 50.4 µg/mL (≈ 147 µM)
COc1cc(S(=O)(=O)NC2CCCC2)c(OC)cc1C | 26.5 µg/mL (≈ 88.5 µM)
COCC[N+]1(C)CCCCC1.[I-] | > 42.8 µg/mL
O=C(Nc1cc2c(cc1[N+](=O)[O-])OCCO2)c1cccnc1 | 5.1 µg/mL (≈ 16.9 µM)
C#CCN1CCN(c2cccc(C(F)(F)F)c2)CC1 | 9.8 µg/mL (≈ 36.5 µM)
COc1ccc(OC)c(S(=O)(=O)NCCc2csc(-c3cccnc3)n2)c1 | 59 µg/mL (≈ 145 µM)
CC1SCC(=NOCc2ccccc2)CS1 (centres undefined) | 11.5 µg/mL (≈ 45.4 µM)
Cc1cccc(-n2ccc(=O)c(C(=O)O)n2)c1 | > 34.5 µg/mL
CO/N=C(\CCC(=O)O)c1cccs1 | > 32 µg/mL
Nc1nc(NCc2ccccc2)nc(NCCO)c1[N+](=O)[O-] | 43.4 µg/mL (≈ 143 µM)
Cc1ccc(S(=O)(=O)N2CCN(C(=O)Cn3c(=O)cnc4ccccc43)CC2)c(C)c1 | > 66.1 µg/mL
COc1ccc2c3c([nH]c2c1)C(C)=NCC3 | 30.6 µg/mL (≈ 143 µM)
O=C(O)c1ccccc1-c1ccccc1C(=O)Nc1cccc(Br)c1 | 53.6 µg/mL (≈ 135 µM)
CCCN(CC1CC1)C(=O)CSc1ncnc2sccc12 | > 48.2 µg/mL
CC(=O)c1c(-c2ccccc2)c2cc([N+](=O)[O-])ccc2[nH]c1=O | 16.3 µg/mL (≈ 52.9 µM)
CC1CCN(C(=O)CN2C(=O)c3cccc4cccc(c34)C2=O)CC1 | 2.1 µg/mL (≈ 6.24 µM)
N#Cc1cc(Nc2c(N)nc[nH]c2=O)c([N+](=O)[O-])cc1C#N | > 44.6 µg/mL
COc1cccc(NC(=O)C(=O)NCCCn2ccnc2)c1 | 42.2 µg/mL (≈ 140 µM)
C=CCn1cccc(C(=O)Nc2ccc(Cl)cc2)c1=O | 3.4 µg/mL (≈ 11.8 µM)
O=c1c2cc(F)ccc2[nH]c(=S)n1Cc1ccc(F)cc1 | 0.9 µg/mL (≈ 2.96 µM)

Structure (SMILES) | solubility kinetic
NC(=O)c1ccsc1NC(=O)CCc1ccccc1 | 37.4 µg/mL (≈ 136 µM)
O=Cc1cn(Cc2ccc(Br)cc2)c2ccccc12 | < 0.7 µg/mL
Cn1c(SCC(=O)N2CCCC2=O)nc2ccccc21 | > 43.4 µg/mL
COc1ccc(C(=O)C[n+]2ccc3ccccc3c2C)cc1.[Br-] | 16.1 µg/mL
CCOc1ccc(S(=O)(=O)c2c[nH]c3ccccc3c2=O)cc1 | 1.7 µg/mL (≈ 5.16 µM)
CC(=O)Nc1scc(C)c1-c1nc2ccccc2s1 | < 0.3 µg/mL
Cc1nc2ccc(NS(=O)(=O)c3ccc(F)cc3)cc2s1 | 44.3 µg/mL (≈ 137 µM)
CN(C(=O)CSc1nnc(-c2ccc(Cl)cc2)n1C)C1CCS(=O)(=O)C1 (centres undefined) | > 62.2 µg/mL
O=c1[nH]c(SCc2ccc(Cl)cc2)nc2ccccc12 | 0.8 µg/mL (≈ 2.64 µM)
Cc1ccccc1OCCCn1c(CO)nc2ccccc21 | 12.9 µg/mL (≈ 43.5 µM)
CCCC(=O)NC(=S)Nc1ccc(CN2CCOCC2)cc1 | > 48.2 µg/mL
Br.O=[N+]([O-])c1ccc(CSC2=NCCN2)cc1 | 43.2 µg/mL
COc1ccc(Nc2nc3cc(C)ccc3cc2C#N)cc1 | < 0.2 µg/mL
O=C(CSc1nc(-c2ccccc2)cs1)NCCCN1CCCC1=O | > 56.3 µg/mL
Cc1ccc2nc(Cl)c(/C=C/C(=O)c3ccco3)cc2c1 | 15.4 µg/mL (≈ 51.7 µM)
Cc1nc2c(c(=O)c3ccccc3n2C)c(=O)n1-c1ccccc1 | 46.2 µg/mL (≈ 146 µM)
COC(=O)c1cccc(Nc2ccc([N+](=O)[O-])cn2)c1 | 0.3 µg/mL (≈ 1.1 µM)
COCCn1cnc2c1c(=O)n(CC(=O)NCC(F)(F)F)c(=O)n2Cc1ccccc1 | 39.9 µg/mL (≈ 90.8 µM)
O=C(Nc1cccc(-c2cnc3ccccc3n2)c1)c1ccncc1 | 0.6 µg/mL (≈ 1.84 µM)
O=C(COc1ccc2c(c1)OCO2)NCc1cccs1 | > 43.7 µg/mL
CN(C)CCCN1C(=O)CSC1c1ccc([N+](=O)[O-])cc1.Cl (centres undefined) | 47.6 µg/mL

Structure (SMILES) | solubility kinetic
Cc1cc(SCC(=O)NC2CC2)nc2ccccc12 | > 40.9 µg/mL
CC1(C)Cc2cccc(C(=O)Nc3ccc(Cl)cc3)c2O1 | 2.4 µg/mL (≈ 7.95 µM)
Cc1c(C(=O)N2CCCC(C(F)(F)F)C2)oc2ccccc12 (centres undefined) | 31.8 µg/mL (≈ 102 µM)
COc1cc(OC)cc(C(=O)NCCOC23CC4CC(CC(C4)C2)C3)c1 | 31.3 µg/mL (≈ 87.1 µM)
Cc1ccc(C)c(-c2csc(NC(=O)C3=COCCO3)n2)c1 | 11.3 µg/mL (≈ 35.7 µM)
O=C(COC(=O)c1ccc(Cl)cc1[N+](=O)[O-])NC(=O)c1ccccc1 | 4.8 µg/mL (≈ 13.2 µM)
C=CCN1CC(C)/C(=N\O)CC1C (centres undefined) | 26.4 µg/mL (≈ 145 µM)
O=C(NCc1ccco1)C(=O)c1cn(CC(=O)N2CCCC2)c2ccccc12 | > 56.9 µg/mL
CCC1CN(C(=O)NCc2ccccc2)c2cc(Cl)ccc2O1 (centres undefined) | < 0.4 µg/mL
CN1CCN(S(=O)(=O)c2ccc(N(C)Cc3c(F)cccc3Cl)nc2)CC1 | 5.4 µg/mL (≈ 13.1 µM)
O=C(Nc1ccccc1)c1ccc(NC(=O)c2cccs2)cc1 | < 0.3 µg/mL
Cc1cc(Oc2ccc(Cl)cc2)nc(-c2ccccn2)n1 | 38.4 µg/mL (≈ 129 µM)
CSc1sccc1/C=C(/C#N)C(=O)c1ccco1 | 22.6 µg/mL (≈ 82.1 µM)
COc1ccc(N(C(C)C(=O)N2CCCC2)S(C)(=O)=O)cc1 (centres undefined) | > 49 µg/mL
COc1cc(C(=O)N2CCCN(C)CC2)cc(OC)c1C.Cl | > 49.3 µg/mL
COc1ccc(NC(=S)Nc2cccc(C(F)(F)F)c2)c(C)c1 | 8 µg/mL (≈ 23.5 µM)
O=C(CN1CCCCCC1)Nc1ccccc1OC(F)F | 44.5 µg/mL (≈ 149 µM)
Cc1nc(N2CCC(C)CC2)c(C#N)c(C)c1[N+](=O)[O-] | 0.9 µg/mL (≈ 3.28 µM)
NS(=O)(=O)c1ccc(CNC(=O)c2ccc(NS(=O)(=O)c3cccs3)cc2)cc1 | > 67.7 µg/mL
O=C(COC(=O)c1cccc([N+](=O)[O-])c1)NCc1cccs1 | 36 µg/mL (≈ 112 µM)
Cc1noc(C)c1COc1ccc(C(=O)Nc2ccccn2)cc1 | 7.6 µg/mL (≈ 23.5 µM)

Structure (SMILES) | solubility kinetic
Cc1ccc(C2C(C#N)=C(N)Oc3cc(N)ccc32)cc1 (centres undefined) | 4.4 µg/mL (≈ 15.9 µM)
O=C1NC2=C(C(=O)CCC2)C(c2ccccc2Cl)N1 (centres undefined) | 39.1 µg/mL (≈ 141 µM)
O=C(c1ccc(Oc2ccc([N+](=O)[O-])cc2)cc1)N1CCCCCC1 | 34.4 µg/mL (≈ 101 µM)
O=C(Nc1ccccc1)C1CCN(C(=O)c2ccco2)CC1 | > 44.8 µg/mL
S=C(NCc1ccc(Cl)c(Cl)c1)NCc1ccco1 | 23.1 µg/mL (≈ 73.3 µM)
CS(=O)(=O)Nc1ccc(C(=O)Nc2ccccc2-c2ccccc2)cc1 | 42.4 µg/mL (≈ 116 µM)
COc1ccc(NC(=O)COC(=O)C2CCN(S(=O)(=O)c3cccs3)CC2)cc1OC | 47.1 µg/mL (≈ 101 µM)
COc1cc(SC)ccc1C(=O)Nc1ccc2c(c1)CCC2 | 2.2 µg/mL (≈ 7.02 µM)
Cc1ccc(CC(=O)N2CCN(C(=O)C3CCCO3)CC2)cc1 (centres undefined) | 43.2 µg/mL (≈ 137 µM)
Cc1ccccc1NC(=O)CN1C(=O)c2ccccc2C1=O | 8.5 µg/mL (≈ 28.9 µM)
CCN(C(=O)COC(=O)/C=C/c1ccc(F)cc1)C1CCCCC1 | 42.8 µg/mL (≈ 128 µM)
Cc1cc(NS(=O)(=O)c2ccc(C(C)C)cc2)no1 | 40.2 µg/mL (≈ 143 µM)
O=C(CN1C(=O)c2ccccc2S1(=O)=O)c1ccc(O)c(O)c1 | > 50 µg/mL
COc1ccc(OC)c(N(CC(=O)N2CCCC2)S(C)(=O)=O)c1 | > 51.4 µg/mL
CCOC(=O)Cc1ccc(NC(=O)c2cccc([N+](=O)[O-])c2)cc1 | 2.6 µg/mL (≈ 7.92 µM)
O=C(COc1ccc2ccccc2c1)Nc1ccccc1C(=O)O | > 48.2 µg/mL
CN(Cc1ccccc1)S(=O)(=O)c1cc2c3c(c1)CCN3C(=O)CC2 | 3.6 µg/mL (≈ 10.1 µM)
O=C(CCCN1C(=O)/C(=C/c2ccccc2OC(F)F)SC1=S)Nc1cccnc1 | 4.5 µg/mL (≈ 10 µM)
COC(=O)c1ccc(S(=O)(=O)NCc2ccco2)n1C | 44.3 µg/mL (≈ 148 µM)
O=C(Nc1ccc(Cl)cn1)c1ccc(Oc2ccccc2)cc1 | < 0.3 µg/mL
Nc1nnc(SCC(=O)Nc2cccnc2Cl)s1 | > 45.3 µg/mL
